Measured values from patent US20070249706A1, “USE OF CERTAIN BIPHENYL COMPOUNDS FOR PROTECTION OF NEURONS AND OLIGODENDROCYTES IN THE TREATMENT OF MULTIPLE SCLEROSIS (MS)” (AVENTIS PHARMACEUTICALS INC., priority 2004, published 2007).

How the values were obtained:
mature oligodendrocytes = assay: Oligodendrocyte toxicity assay, protection of mature oligodendrocytes (OL) against SIN-1, LDH release; type: cell-based, rat; conditions: 10 nM compound, 1 hour pretreatment, SIN-1 toxin, LDH after 24 hours
Description: (§1) Oligodendrocyte Toxicity Assay
(§2) Primary rat oligodendrocyte progenitor cells were obtained from the cerebra of 2-3 day old postnatal rats (Sprague Dawley). The meninges were removed and tissue was mechanically dissociated. Cells were plated on T75 flasks and fed with DMEM +10% FBS.
(§3) Enriched OLPs were collected by mechanical separation from the astrocytic monolayer and were expanded in serum free media (SFM) supplemented with the mitogens, PDGF-AA (10 ng/mI) and FGF-2 (10 ng/mI).
To generate mature oligodendrocytes, progenitor cells were switched to SFM supplemented with IGF-1 (10 ng/mi) 24 hours after plating and cells were grown under these conditions for 7 days prior to experimental assays.
(§4) Cells were plated in 96-well plates, 10,000 per well. Medium was changed to fresh medium and cells were pretreated with compounds for 1 hour. Toxins were added to give the following final concentrations: Sin-10 mM, Camptothecin 1 OM
(§5) After 24 hours, medium was removed and assayed for LDH activity using the Promega cytotox 96 kit (catalog# G1780). Results were calculated as percent protection against toxin-induced toxicity.
(§6) These compounds have been assessed for their efficacy in protection against cell death produced by toxic agents such as SIN-1 (3-morpholino-sydnonimine, producing peroxynitrite) and camptothecin. The target cells assessed in vitro are primary cultures of rodent oligodendrocyte progenitors and their mature counterparts.

[1] = system: primary rat oligodendrocyte progenitor cells; assay: Oligodendrocyte toxicity assay, protection of oligodendrocyte progenitors (OLP) against SIN-1, LDH release; type: cell-based; conditions: 10 nM compound, 1 hour pretreatment, SIN-1 toxin, LDH after 24 hours
Description: as §1, §2, §3, §4, §5, §6

ERβ = target: T1, ERβ (Homo sapiens, UniProt Q92731); assay: Fluorescence Polarization Competition Assay, ERβ binding (Panvera kit); conditions: for IC50: ER, fluorescence polarization competition; for ER[…] selectivity Fold Diff: ratio of the two ER binding IC50 values
T1 construct: purchased Panvera P2700
Description: (§7) A number of compounds were tested for ERα and ERβ binding using Panvera's Fluorescence Polarization Competition Assay Kits (cat. nos. P2698 and P2700). Briefly, ERα or ERβ were thawed on ice from −80° C. An estrogen receptor and fluorescent ligand (Fluormone™) complex was formed at a 15/1 molar ratio for ERα and at a 10/1 molar ratio for ER≈ (2X complex). Serial dilutions of the test compounds were made in assay buffer and the assay was initiated by adding 50 ul of the 2X receptor-ligand complex to 50 ul of compound solution in black 96-well plates. Zero percent competition (theoretical maximum polarization) was measured in wells containing 50 ul of buffer and 50 ul of the 2X receptor-ligand complex. The plates were incubated after gentle shaking in the dark at room temperature. Polarization values (mP) were read no longer than 7 hours after the reaction was started with a FARCyte Fluorescent reader (Amersham) at excitation and emission wavelengths of 485 nm and 535 nm, respectively. Data was analyzed using non-linear regression and IC50 values determined using GraphPad Prism. Estradiol was used as the reference compound.

ERα = target: T2, ERα (Homo sapiens, UniProt P03372); assay: Fluorescence Polarization Competition Assay, ERα binding (Panvera kit); conditions: first ER column
T2 construct: purchased Panvera P2698
T2 sequence (P03372 1-595): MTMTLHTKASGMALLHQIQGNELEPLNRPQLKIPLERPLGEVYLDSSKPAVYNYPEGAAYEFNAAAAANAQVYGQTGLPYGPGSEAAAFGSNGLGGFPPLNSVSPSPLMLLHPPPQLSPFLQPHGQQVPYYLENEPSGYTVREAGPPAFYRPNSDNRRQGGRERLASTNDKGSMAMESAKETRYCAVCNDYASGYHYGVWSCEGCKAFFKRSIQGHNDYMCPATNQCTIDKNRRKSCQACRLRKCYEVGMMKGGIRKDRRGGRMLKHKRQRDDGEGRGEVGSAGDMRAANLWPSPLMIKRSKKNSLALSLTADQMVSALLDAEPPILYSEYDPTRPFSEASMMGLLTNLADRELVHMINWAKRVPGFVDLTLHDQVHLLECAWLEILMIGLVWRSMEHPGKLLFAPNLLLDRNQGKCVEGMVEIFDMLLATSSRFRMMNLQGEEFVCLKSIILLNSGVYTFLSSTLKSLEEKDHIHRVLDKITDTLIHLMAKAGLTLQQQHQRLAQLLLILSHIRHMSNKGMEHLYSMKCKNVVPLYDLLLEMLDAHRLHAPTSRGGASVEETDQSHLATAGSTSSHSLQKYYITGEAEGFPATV
Description: as §7

T1 sequence (Q92731 whole entry): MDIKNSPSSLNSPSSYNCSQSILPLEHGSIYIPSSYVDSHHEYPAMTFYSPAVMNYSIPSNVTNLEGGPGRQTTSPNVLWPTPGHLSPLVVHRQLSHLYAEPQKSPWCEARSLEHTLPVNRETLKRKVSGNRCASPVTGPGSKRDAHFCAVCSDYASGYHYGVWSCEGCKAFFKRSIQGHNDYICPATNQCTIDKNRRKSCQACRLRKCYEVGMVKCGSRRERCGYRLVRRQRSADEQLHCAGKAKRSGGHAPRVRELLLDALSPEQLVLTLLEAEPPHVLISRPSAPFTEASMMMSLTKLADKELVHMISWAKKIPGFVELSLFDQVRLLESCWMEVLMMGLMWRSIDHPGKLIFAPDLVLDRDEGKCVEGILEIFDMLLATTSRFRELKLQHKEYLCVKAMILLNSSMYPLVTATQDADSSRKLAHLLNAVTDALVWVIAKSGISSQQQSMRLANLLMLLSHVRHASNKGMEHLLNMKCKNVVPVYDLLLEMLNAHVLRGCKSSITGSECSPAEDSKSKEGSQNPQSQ

SMILES	IC50 (ERβ) [nM]	ER[…] selectivity Fold Diff (ERβ) [Fold]	IC50 (ERα) [nM]	% Protection (SIN-1*) OL 10 nM (mature oligodendrocytes) [%]	% Protection (SIN-1*) OLP 10 nM [1] [%]
OCc1cc(Cl)c(-c2ccc(O)cc2)c(Cl)c1 [2,6-dichloro-4′-hydroxy-[1,1′-biphenyl]-4-methanol]	18	5	93	6	36
OCc1cc(Br)c(-c2ccc(O)cc2)c(Br)c1 [2,6-dibromo-4′-hydroxy-[1,1′-biphenyl]-4-methanol]	9	7	60	11	51
OCc1cc(Br)c(-c2ccc(O)cc2)c(-n2cccc2)c1 [2-bromo-4′-hydroxy-6-(1H-pyrrol-1-yl)-1,1′-biphenyl]-4-methanol]	15	27	408	15	10

Further lines, with some results ahead:

IC50 (ERβ) [nM]	ER[…] selectivity Fold Diff (ERβ) [Fold]	IC50 (ERα) [nM]	SMILES	% Protection (SIN-1*) OL 10 nM (mature oligodendrocytes) [%]	% Protection (SIN-1*) OLP 10 nM [1] [%]
37	11	420	CN(C)c1cc(CO)cc(Br)c1-c1ccc(O)cc1 [2-bromo-6-dimethylamino-4′-hydroxy-[1,1′-biphenyl]-4-methanol]	12	45
6	25	157	OCc1cc(Br)c(-c2ccc(O)cc2)c(-c2ccoc2)c1 [2-bromo-6-(furan-3-yl)-4′-hydroxy-[1,1′-biphenyl]-4-methanol]	16	37
8	16	125	O=[N+]([O-])c1cc(CO)cc(Br)c1-c1ccc(O)cc1 [2-bromo-4′-hydroxy-6-nitro-[1,1′-biphenyl]-4-methanol]	12	16
